Test [1] has as its system TGF‐β1‐stimulated human fibroblasts. Nature of the test: Induction assay: fibrotic marker mRNA. The format is cell-based. Conditions: primary human fibroblasts, TGF‐β1 5 ng mL^−1, 48 h, only at the highest test concentration 100 nM; qPCR; n = 4. On the technique in general: In qPCR the cycle at which signal appears reflects the starting amount.
Test [2] deals with T1, CXCR3A‐transfected CHO cells (human CXCR3A) (Homo sapiens, UniProt P49682).
T1 sequence (P49682 1-368): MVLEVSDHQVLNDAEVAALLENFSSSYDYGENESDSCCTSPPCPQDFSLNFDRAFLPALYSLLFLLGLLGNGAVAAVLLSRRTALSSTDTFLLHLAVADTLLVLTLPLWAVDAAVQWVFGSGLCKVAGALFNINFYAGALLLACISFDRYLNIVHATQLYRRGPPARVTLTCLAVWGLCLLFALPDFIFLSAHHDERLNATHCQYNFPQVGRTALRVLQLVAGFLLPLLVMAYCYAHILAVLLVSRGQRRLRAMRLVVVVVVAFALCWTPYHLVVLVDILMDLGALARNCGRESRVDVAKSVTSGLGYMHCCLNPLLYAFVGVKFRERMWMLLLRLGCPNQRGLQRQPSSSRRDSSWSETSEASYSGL
As to conditions: CXCR3‐transfected CHO cells; n = 4; cited from earlier work.

Take “CXCL9(1–103): authentic full‐length human CXCL9 chemokine of 103 amino acids (Peprotech)”: the “collagen III mRNA expression” value in test [1] was “significant reduction”. Moreover, the calcium response in test [2] is given as 598.1 ± 22.9 nM.

The values are drawn from publication PMC8810938 (Clinical & Translational Immunology, 2022).
